According to patent US8623429B2, “Stabilized anthocyanin compositions” (Omnica GmbH, priority 2007, dated 2014):

Tests used:
Assay type in all cases: physicochemical
[1] = Example 3: stability of black currant extract anthocyanosides, 4 hours at 37° C., pH 7.0, with/without DHLA, GSH or L-cysteine (HPLC)
[2] = Example 1: stability of bilberry extract anthocyanosides, 4 hours at 37° C., pH 7.0, with/without DHLA or GSH (HPLC)
[3] = Example 9: stability of bilberry extract anthocyanosides, 4 hours at 37° C., pH 7.0, with/without L-cysteine
[4] = Example 5: degradation over time of black currant anthocyanosides at 37° C., pH 7.0, with/without GSH (HPLC); details: pH 7.0, 37° C.; for %-residual anthocyanosides (% left): 4 hours
[5] = unprotected, pH 7.0, 37° C., 4 hours
[6] = 20 mg reduced L-glutathione, pH 7.0, 37° C., 4 hours
[7] = 30 mg dihydrolipoic acid, pH 7.0, 37° C., 4 hours

OC[C@H]1O[C@@H](Oc2cc3c(O)cc(O)cc3[o+]c2-c2cc(O)c(O)c(O)c2)[C@H](O)[C@@H](O)[C@@H]1O [Dp-3O-Glc, Delphinidin 3-o-glucoside]
Peak Area, Fresh solution ([1]; black currant extract 60 mg/100 ml buffer pH 7.0, fresh sample): 1481 | % left, DHLA 20 mg ([1]; pH 7.0, 37° C., 4 hours): 52.0% | % left, GSH 20 mg ([1]; pH 7.0, 37° C., 4 hours): 50.4% | % left, L-cysteine 20 mg ([1]; pH 7.0, 37° C., 4 hours): 36.7% | Peak Area, DHLA 20 mg ([1]; pH 7.0, 37° C., 4 hours): 770.7 | Peak Area, GSH 20 mg ([1]; pH 7.0, 37° C., 4 hours): 745.6 | Peak Area, L-cysteine 20 mg ([1]; pH 7.0, 37° C., 4 hours): 543.0 | % left, Blank [1, 5]: 9.5% | Peak Area, Blank [1, 5]: 140.8 | % left, GSH (4 hours) [2, 6]: 48.3% | Peak Area, GSH (4 hours) [2, 6]: 350.8 | % left, DHLA (4 hours) [2, 7]: 57.1% | Peak Area, DHLA (4 hours) [2, 7]: 414.8 | Peak Area, Fresh (0 hours) ([2]; bilberry extract 60 mg/100 ml sodium phosphate buffer pH 7.0, fresh sample): 726.6 | % left, Blank (4 hours) [2, 5]: 6.4% | Peak Area, Blank (4 hours) [2, 5]: 46.3 | Peak Area, Fresh solution ([3]; bilberry extract 60 mg in buffer pH 7.0, fresh sample): 726.6 | % left, L-cysteine 20 mg ([3]; pH 7.0, 37° C., 4 hours): 48.3% | Peak Area, L-cysteine 20 mg ([3]; pH 7.0, 37° C., 4 hours): 350.8 | % left, Blank [3, 5]: 6.4% | Peak Area, Blank [3, 5]: 46.3 | Peak Area ([4]; Blank sample, 0:00 h): 1480.7 | Peak Area ([4]; Blank sample, 0:15 h): 969.6 | Peak Area ([4]; Blank sample, 0:30 h): 907.9 | Peak Area ([4]; Blank sample, 0:45 h): 745.2 | Peak Area ([4]; Blank sample, 1:00 h): 702.1 | Peak Area ([4]; Blank sample, 1:30 h): 605.4 | Peak Area ([4]; Blank sample, 1:45 h): 599.9 | Peak Area ([4]; Blank sample, 2:00 h): 465.1 | Peak Area ([4]; Blank sample, 2:15 h): 449.8 | Peak Area ([4]; Blank sample, 2:30 h): 394.0 | Peak Area ([4]; Blank sample, 2:45 h): 362.7 | Peak Area ([4]; Blank sample, 3:00 h): 304.8 | Peak Area ([4]; Blank sample, 3:15 h): 285.1 | Peak Area ([4]; Blank sample, 3:30 h): 208.8 | Peak Area ([4]; Blank sample, 3:45 h): 214.5 | Peak Area ([4]; Blank sample, 4:00 h): 140.8 | %-residual anthocyanosides (% left) ([4]; Blank): 10% | Peak Area ([4]; GSH protected sample (20 mg), 0:00 h): 1464.0 | Peak Area ([4]; GSH protected sample (20 mg), 0:15 h): 1280.4 | Peak Area ([4]; GSH protected sample (20 mg), 0:45 h): 1209.3 | Peak Area ([4]; GSH protected sample (20 mg), 1:00 h): 1219.0 | Peak Area ([4]; GSH protected sample (20 mg), 1:15 h): 1178.1 | Peak Area ([4]; GSH protected sample (20 mg), 1:45 h): 1051.8 | Peak Area ([4]; GSH protected sample (20 mg), 2:00 h): 1077.0 | Peak Area ([4]; GSH protected sample (20 mg), 2:15 h): 981.9 | Peak Area ([4]; GSH protected sample (20 mg), 2:45 h): 876.8 | Peak Area ([4]; GSH protected sample (20 mg), 3:00 h): 917.2 | Peak Area ([4]; GSH protected sample (20 mg), 3:15 h): 812.5 | Peak Area ([4]; GSH protected sample (20 mg), 3:45 h): 742.7 | Peak Area ([4]; GSH protected sample (20 mg), 4:00 h): 745.6 | Peak Area ([4]; GSH protected sample (20 mg), 4:15 h): 682.0 | %-residual anthocyanosides (% left) ([4]; GSH-protected): 51%
